# How the values were obtained:
# Assay in all cases: biochemical
# Parameters in all cases: CEREP panel radioligand binding displacement, % inhibition of control specific binding by 10 uM 2BAct
# [1] = target: T1, 5-HT2C (h) (Homo sapiens, UniProt P28335); conditions: Type=Antagonist radioligand; read-out: % inhibition of Control specific binding
# T1 construct: gene HTR2C
# Experimental: (§1) Supplementary file elife-42940-supp1.xlsx: Supplementary file 1. (A) Binding of 2BAct at 10 μM to the CEREP panel of receptors/enzymes/ion channels. Compound binding was calculated as a % inhibition of the binding of a radioactively labeled ligand specific for each target. Results showing inhibition or stimulation higher than 50% are considered to represent significant effects of the test compound. (B) Pharmacokinetic data from 2BAct dosing in mice. (C) GO Biological Processes identified by enrichment analysis of RNA-seq data. (D) List of genes used for enrichment analysis of scRNA-seq data.
# [2] = target: T2, VPAC1 (VIP1) (h) (Homo sapiens, UniProt P32241); conditions: Type=Agonist radioligand; read-out: % inhibition of Control specific binding
# T2 construct: gene VIPR1
# Experimental: as §1
# [3] = target: T3, M3 (h) (Homo sapiens, UniProt P20309); conditions: Type=Antagonist radioligand; read-out: % inhibition of Control specific binding
# T3 construct: gene CHRM3
# T3 sequence (P20309 whole entry): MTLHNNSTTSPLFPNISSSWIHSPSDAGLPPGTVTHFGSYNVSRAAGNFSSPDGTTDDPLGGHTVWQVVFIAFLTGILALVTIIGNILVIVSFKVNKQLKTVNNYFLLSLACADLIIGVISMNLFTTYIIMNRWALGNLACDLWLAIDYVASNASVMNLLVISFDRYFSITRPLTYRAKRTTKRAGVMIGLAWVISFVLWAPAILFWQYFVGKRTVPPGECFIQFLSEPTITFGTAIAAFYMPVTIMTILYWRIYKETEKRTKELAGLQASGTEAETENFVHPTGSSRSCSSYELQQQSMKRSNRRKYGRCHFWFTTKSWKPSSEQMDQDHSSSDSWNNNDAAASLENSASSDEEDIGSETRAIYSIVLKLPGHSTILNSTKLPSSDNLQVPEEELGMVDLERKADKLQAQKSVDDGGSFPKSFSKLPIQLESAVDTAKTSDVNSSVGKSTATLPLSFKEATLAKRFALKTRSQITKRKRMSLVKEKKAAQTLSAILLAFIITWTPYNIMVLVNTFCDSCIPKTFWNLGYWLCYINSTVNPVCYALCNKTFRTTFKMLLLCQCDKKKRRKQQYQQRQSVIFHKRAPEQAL
# Experimental: as §1
# [4] = target: T4, b2 (h) (Homo sapiens, UniProt P07550); conditions: Type=Agonist radioligand; read-out: % inhibition of Control specific binding
# T4 construct: gene ADRB2
# T4 sequence (P07550 whole entry): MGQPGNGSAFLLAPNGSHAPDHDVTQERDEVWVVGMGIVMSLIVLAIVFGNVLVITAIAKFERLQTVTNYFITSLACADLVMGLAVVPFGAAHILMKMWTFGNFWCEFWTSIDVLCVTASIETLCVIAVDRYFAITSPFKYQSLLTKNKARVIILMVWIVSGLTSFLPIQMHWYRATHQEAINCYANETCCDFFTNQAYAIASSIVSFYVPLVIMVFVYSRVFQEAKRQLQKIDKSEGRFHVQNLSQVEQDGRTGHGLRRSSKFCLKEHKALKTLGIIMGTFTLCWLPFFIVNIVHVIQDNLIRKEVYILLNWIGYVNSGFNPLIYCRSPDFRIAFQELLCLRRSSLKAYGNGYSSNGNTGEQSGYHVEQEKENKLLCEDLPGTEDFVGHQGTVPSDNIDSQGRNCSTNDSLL
# Experimental: as §1
# [5] = target: T5, A2a (h) (Homo sapiens, UniProt P29274); conditions: Type=Agonist radioligand; read-out: % inhibition of Control specific binding
# T5 construct: gene ADORA2A
# T5 sequence (P29274 whole entry): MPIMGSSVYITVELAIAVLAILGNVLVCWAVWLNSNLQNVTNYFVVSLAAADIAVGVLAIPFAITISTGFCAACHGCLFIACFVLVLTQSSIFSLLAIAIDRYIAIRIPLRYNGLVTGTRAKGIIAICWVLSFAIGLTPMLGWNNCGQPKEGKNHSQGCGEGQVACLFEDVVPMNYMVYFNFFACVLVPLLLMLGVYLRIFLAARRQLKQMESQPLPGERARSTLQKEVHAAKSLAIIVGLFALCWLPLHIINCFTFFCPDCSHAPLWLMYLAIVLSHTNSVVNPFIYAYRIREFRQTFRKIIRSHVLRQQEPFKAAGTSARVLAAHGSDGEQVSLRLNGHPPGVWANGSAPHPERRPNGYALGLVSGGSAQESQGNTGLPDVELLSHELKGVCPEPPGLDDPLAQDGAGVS
# Experimental: as §1
# [6] = target: T6, 5-HT2A (h) (Homo sapiens, UniProt P28223); conditions: Type=Antagonist radioligand; read-out: % inhibition of Control specific binding
# T6 construct: gene HTR2A
# Experimental: as §1
# [7] = target: T7, a1A (h) (Homo sapiens, UniProt P35348); conditions: Type=Antagonist radioligand; read-out: % inhibition of Control specific binding
# T7 construct: gene ADRA1A
# T7 sequence (P35348 whole entry): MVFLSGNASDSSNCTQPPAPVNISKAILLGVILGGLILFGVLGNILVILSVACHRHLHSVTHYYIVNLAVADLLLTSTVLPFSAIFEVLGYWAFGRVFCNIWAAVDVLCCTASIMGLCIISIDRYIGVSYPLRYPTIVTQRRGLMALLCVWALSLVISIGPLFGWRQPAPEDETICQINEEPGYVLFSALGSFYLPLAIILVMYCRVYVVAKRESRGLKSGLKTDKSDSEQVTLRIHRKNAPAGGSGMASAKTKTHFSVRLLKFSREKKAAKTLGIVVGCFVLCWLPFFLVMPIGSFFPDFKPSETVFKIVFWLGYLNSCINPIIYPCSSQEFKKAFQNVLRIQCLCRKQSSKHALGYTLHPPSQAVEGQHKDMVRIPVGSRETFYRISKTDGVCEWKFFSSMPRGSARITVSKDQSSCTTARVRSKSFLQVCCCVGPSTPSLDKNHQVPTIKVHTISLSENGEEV
# Experimental: as §1
# [8] = target: T8, AT2 (h) (Homo sapiens, UniProt P50052); conditions: Type=Agonist radioligand; read-out: % inhibition of Control specific binding
# T8 construct: gene AGTR2
# Experimental: as §1
# [9] = target: T9, B2 (h) (Homo sapiens, UniProt P30411); conditions: Type=Agonist radioligand; read-out: % inhibition of Control specific binding
# T9 construct: gene BDKRB2
# T9 sequence (P30411 whole entry): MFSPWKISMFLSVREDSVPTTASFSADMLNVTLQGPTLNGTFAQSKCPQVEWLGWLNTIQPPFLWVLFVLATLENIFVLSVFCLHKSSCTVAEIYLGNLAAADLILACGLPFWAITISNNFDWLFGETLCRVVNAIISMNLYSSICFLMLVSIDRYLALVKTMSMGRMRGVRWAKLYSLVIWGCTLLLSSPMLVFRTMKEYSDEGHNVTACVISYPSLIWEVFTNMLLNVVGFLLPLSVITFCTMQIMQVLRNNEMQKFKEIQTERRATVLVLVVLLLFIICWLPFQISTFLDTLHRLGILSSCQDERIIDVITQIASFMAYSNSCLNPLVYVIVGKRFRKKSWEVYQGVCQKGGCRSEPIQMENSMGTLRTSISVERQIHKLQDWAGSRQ
# Experimental: as §1
# [10] = target: PPARg (h) (Homo sapiens, UniProt P37231); conditions: Type=Agonist radioligand; read-out: % inhibition of Control specific binding
# Experimental: as §1
# [11] = target: T10, a2B (h) (Homo sapiens, UniProt P18089); conditions: Type=Antagonist radioligand; read-out: % inhibition of Control specific binding
# T10 construct: gene ADRA2B
# Experimental: as §1
# [12] = target: T11, CGRP (h) (Homo sapiens, UniProt Q16602); conditions: Type=Agonist radioligand; read-out: % inhibition of Control specific binding
# T11 construct: gene CALCRL
# Experimental: as §1
# [13] = target: T12, AT1 (h) (Homo sapiens, UniProt P30556); conditions: Type=Antagonist radioligand; read-out: % inhibition of Control specific binding
# T12 construct: gene AGTR1
# T12 sequence (P30556 whole entry): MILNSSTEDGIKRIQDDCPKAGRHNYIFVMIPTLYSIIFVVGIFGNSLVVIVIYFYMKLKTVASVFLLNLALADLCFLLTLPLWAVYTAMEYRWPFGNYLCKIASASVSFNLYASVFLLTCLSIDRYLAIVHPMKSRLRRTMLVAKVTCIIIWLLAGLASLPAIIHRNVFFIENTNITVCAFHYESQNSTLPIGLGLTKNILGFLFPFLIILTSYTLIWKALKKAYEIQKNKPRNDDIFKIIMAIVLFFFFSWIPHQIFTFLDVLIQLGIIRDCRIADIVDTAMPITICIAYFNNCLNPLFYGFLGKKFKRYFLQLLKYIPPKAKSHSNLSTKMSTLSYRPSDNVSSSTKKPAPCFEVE
# Experimental: as §1
# [14] = target: T13, MT2 (ML1B) (h) (Homo sapiens, UniProt P49286); conditions: Type=Agonist radioligand; read-out: % inhibition of Control specific binding
# T13 construct: gene MTNR1B
# T13 sequence (P49286 whole entry): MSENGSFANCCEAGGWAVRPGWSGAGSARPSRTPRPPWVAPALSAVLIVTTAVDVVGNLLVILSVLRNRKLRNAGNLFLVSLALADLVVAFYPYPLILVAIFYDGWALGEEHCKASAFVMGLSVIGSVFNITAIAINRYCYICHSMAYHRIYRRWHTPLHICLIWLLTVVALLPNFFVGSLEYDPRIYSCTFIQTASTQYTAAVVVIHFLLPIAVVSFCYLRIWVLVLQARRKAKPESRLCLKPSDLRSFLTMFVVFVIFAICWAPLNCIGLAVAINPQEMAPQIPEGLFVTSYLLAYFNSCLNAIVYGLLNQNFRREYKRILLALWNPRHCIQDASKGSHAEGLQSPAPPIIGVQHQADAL
# Experimental: as §1
# [15] = target: T14, CCK1(CCKA) (h) (Homo sapiens, UniProt P32238); conditions: Type=Agonist radioligand; read-out: % inhibition of Control specific binding
# T14 construct: gene CCKAR
# Experimental: as §1
# [16] = target: T15, 5-HT4E (h) (Homo sapiens, UniProt Q13639); conditions: Type=Antagonist radioligand; read-out: % inhibition of Control specific binding
# T15 construct: gene HTR4; isoform 4E
# T15 sequence (Q13639 whole entry, canonical isoform): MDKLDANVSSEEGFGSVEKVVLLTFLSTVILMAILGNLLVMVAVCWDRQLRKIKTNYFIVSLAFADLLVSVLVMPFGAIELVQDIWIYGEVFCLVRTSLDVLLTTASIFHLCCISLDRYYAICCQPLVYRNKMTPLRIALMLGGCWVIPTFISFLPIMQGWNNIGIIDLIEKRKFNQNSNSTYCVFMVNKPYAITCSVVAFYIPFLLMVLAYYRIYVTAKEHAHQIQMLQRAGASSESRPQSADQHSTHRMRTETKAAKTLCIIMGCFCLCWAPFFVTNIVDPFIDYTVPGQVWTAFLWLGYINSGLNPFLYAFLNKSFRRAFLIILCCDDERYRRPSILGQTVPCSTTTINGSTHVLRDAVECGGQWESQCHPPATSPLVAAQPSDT
# Experimental: as §1
# [17] = target: T16, 5-HT2B (h) (Homo sapiens, UniProt P41595); conditions: Type=Agonist radioligand; read-out: % inhibition of Control specific binding
# T16 construct: gene HTR2B
# T16 sequence (P41595 whole entry): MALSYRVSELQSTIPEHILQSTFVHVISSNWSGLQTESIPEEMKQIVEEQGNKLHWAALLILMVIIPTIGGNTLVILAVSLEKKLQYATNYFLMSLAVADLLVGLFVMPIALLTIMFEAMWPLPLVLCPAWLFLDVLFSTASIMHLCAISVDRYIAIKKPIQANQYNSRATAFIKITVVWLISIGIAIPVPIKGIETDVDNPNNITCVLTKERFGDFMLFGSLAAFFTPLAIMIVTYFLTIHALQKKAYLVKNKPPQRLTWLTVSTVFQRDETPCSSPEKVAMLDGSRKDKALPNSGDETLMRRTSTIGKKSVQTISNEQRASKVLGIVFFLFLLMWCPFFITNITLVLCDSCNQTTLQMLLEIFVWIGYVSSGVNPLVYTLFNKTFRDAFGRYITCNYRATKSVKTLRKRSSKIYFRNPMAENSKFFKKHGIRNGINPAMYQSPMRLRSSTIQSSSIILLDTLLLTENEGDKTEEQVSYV
# Experimental: as §1
# [18] = target: T17, norepinephrine transporter (h) (Homo sapiens, UniProt P23975); conditions: Type=Antagonist radioligand; read-out: % inhibition of Control specific binding
# T17 construct: gene SLC6A2
# T17 sequence (P23975 whole entry): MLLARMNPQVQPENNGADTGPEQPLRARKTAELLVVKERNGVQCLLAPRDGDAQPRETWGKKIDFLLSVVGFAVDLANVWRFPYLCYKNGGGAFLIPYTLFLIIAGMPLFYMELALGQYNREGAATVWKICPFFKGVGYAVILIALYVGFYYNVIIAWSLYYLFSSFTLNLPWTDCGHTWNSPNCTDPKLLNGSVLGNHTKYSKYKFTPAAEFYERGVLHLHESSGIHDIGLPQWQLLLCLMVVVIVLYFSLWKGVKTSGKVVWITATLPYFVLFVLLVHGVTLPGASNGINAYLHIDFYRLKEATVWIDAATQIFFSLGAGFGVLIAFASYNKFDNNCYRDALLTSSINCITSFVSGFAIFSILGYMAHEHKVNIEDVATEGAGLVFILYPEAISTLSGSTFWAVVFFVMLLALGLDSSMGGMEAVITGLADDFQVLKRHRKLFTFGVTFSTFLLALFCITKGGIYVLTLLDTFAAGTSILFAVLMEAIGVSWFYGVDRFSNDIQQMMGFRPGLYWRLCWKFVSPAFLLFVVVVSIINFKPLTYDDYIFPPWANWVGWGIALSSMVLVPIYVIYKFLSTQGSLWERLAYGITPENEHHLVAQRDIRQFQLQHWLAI
# Experimental: as §1
# [19] = target: T18, GR (h) (Homo sapiens, UniProt P04150); conditions: Type=Agonist radioligand; read-out: % inhibition of Control specific binding
# T18 construct: gene NR3C1
# Experimental: as §1
# [20] = target: T19, dopamine transporter (h) (Homo sapiens, UniProt Q01959); conditions: Type=Antagonist radioligand; read-out: % inhibition of Control specific binding
# T19 construct: gene SLC6A3
# Experimental: as §1
# [21] = target: T20, M2 (h) (Homo sapiens, UniProt P08172); conditions: Type=Antagonist radioligand; read-out: % inhibition of Control specific binding
# T20 construct: gene CHRM2
# T20 sequence (P08172 whole entry): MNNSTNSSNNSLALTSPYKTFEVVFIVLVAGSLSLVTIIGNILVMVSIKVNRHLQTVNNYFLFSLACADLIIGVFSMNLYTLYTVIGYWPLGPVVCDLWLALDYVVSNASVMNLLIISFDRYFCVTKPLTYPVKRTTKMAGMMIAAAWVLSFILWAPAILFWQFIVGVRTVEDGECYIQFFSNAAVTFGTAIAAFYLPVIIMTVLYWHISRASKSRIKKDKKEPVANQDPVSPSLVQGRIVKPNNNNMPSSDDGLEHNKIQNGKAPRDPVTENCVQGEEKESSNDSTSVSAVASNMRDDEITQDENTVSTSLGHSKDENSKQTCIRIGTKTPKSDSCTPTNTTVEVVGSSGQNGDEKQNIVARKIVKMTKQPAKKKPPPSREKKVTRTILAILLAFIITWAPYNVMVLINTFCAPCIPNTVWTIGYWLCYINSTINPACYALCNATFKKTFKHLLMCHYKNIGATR
# Experimental: as §1
smiles,measurement,setting,value
O=C(COc1ccc(Cl)c(F)c1)NC12CC(NC(=O)c3cnc(C(F)F)cn3)(C1)C2 [2BAct],inhibition at 10 µM,[1],38.7%
same,inhibition at 10 µM,[2],-9.7%
same,inhibition at 10 µM,[3],-0.9%
same,inhibition at 10 µM,[4],4.4%
same,inhibition at 10 µM,[5],24.8%
same,inhibition at 10 µM,[6],10.8%
same,inhibition at 10 µM,[7],6.6%
same,inhibition at 10 µM,[8],0.2%
same,inhibition at 10 µM,[9],8.7%
same,inhibition at 10 µM,[10],19%
same,inhibition at 10 µM,[11],12.2%
same,inhibition at 10 µM,[12],-4.8%
same,inhibition at 10 µM,[13],13.2%
same,inhibition at 10 µM,[14],-2%
same,inhibition at 10 µM,[15],5.2%
same,inhibition at 10 µM,[16],8.2%
same,inhibition at 10 µM,[17],8.6%
same,inhibition at 10 µM,[18],61%
same,inhibition at 10 µM,[19],3.2%
same,inhibition at 10 µM,[20],53.2%
same,inhibition at 10 µM,[21],4.2%

# From paper PMC6326728, “eIF2B activator prevents neurological defects caused by a chronic integrated stress response” (eLife, 2019)
